What all share (assay type): biochemical
What all share (conditions): HotSpot functional assay, isolated kinase enzyme, 33P-ATP

One assay concerns the target T1, IRAK1 (Homo sapiens, UniProt P51617).
T1 construct: purchased RBC (Reaction Biology) HotSpot assay
Nature of the assay: RBC HotSpot Kinase Assay, IRAK1. The text has this: (§1) This assay uses the isolated kinase enzyme. This assay is very useful for determining competition of the inhibitor for ATP and/or substrates and for measuring the kinetics of enzyme inhibition. […] Unlike kinase binding assays that measure competition for ATP, the HotSpot Kinase Assay is a functional assay that measures catalytic activity; as such it measures relative functional potency regardless of the mechanism of enzyme inhibition. This assay uses the form of the various enzymes that are easiest to express, which may not necessarily be the form of the enzyme that exist in the cell. (Sometimes the carboxy terminus has been truncated to aid in expression, or, if it is a receptor kinase, the enzyme itself is isolated from the other parts of the receptor that are involved in regulating kinase activity.)
(§2) The reagent used was as follows: Base Reaction buffer; 20 mM Hepes (pH 7.5), 10 mM MgCl2, 1 mM EGTA, 0.01% Brij35, 0.02 mg/mi BSA, 0.1 mM Na3VO4, 2 mM DTT, 1% DMSO. Required cofactors were added individually to each kinase reaction.
(§3) The reaction procedure was as follows: • 1) Substrates were prepared in freshly prepared Reaction Buffer. • 2) Any required cofactors were delivered to the substrate solution above. • 3) Kinase was delivered into the substrate solution and gently mixed. • 4) Compounds were delivered in 100% DMSO into the kinase reaction mixture by Acoustic technology (Echo550, nanoliter range), followed by incubation for 20 min at room temp. • 5) ^33P-ATP was delivered into the reaction mixture to initiate the reaction. • 6) The mixture was incubated for 2 hours at room temperature. • 7) Kinase activity was detected by P81 filter-binding method.

The target of the next assay is T2, IRAK4 (Homo sapiens, UniProt Q9NWZ3).
T2 sequence (Q9NWZ3 1-460): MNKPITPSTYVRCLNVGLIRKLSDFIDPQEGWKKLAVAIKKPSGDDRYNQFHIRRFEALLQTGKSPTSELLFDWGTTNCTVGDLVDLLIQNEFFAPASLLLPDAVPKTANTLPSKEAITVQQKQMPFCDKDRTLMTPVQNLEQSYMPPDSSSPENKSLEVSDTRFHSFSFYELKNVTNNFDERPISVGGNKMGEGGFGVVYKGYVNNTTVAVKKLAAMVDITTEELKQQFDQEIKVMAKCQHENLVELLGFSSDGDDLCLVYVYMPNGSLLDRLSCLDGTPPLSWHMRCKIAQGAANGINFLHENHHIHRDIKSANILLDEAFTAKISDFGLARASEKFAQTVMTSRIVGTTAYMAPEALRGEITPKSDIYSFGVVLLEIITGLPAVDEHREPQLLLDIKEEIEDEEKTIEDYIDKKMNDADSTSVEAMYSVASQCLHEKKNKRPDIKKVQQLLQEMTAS
Kind of assay: RBC HotSpot Kinase Assay, IRAK4. The arrangement: purchased RBC (Reaction Biology) HotSpot assay.
Text: as §1, §2, §3

For another assay, the target named is T3, FLT3 (Homo sapiens, UniProt P36888).
T3 sequence (P36888 27-993): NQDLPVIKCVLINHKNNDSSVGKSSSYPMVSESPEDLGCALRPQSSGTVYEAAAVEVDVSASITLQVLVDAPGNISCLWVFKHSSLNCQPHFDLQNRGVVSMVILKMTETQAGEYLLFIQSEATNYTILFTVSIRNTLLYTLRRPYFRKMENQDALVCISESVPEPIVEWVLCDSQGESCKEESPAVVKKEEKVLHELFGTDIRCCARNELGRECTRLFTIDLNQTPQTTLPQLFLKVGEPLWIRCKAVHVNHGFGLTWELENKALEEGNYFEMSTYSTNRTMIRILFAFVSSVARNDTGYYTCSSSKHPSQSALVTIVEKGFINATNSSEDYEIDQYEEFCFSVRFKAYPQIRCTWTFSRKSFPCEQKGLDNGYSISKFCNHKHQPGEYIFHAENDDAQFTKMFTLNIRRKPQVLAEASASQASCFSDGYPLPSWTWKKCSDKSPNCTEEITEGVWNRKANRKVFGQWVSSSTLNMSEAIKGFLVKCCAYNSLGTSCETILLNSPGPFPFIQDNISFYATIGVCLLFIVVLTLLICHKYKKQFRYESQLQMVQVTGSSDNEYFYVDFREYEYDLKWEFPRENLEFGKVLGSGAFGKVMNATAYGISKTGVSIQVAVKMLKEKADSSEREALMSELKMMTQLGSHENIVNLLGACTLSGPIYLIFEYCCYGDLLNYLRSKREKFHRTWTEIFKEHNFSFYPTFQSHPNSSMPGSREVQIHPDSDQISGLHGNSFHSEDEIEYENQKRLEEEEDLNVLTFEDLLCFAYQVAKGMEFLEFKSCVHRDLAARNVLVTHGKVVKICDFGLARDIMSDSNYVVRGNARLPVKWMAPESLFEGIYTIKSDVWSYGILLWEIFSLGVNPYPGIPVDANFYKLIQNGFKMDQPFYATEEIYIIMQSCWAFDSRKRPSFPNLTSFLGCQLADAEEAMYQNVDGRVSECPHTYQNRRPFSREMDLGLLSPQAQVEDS
Kind of assay: RBC HotSpot Kinase Assay, FLT3. Further details: purchased RBC (Reaction Biology) HotSpot assay.
Text: as §1, §2, §3

T1 sequence (P51617 whole entry): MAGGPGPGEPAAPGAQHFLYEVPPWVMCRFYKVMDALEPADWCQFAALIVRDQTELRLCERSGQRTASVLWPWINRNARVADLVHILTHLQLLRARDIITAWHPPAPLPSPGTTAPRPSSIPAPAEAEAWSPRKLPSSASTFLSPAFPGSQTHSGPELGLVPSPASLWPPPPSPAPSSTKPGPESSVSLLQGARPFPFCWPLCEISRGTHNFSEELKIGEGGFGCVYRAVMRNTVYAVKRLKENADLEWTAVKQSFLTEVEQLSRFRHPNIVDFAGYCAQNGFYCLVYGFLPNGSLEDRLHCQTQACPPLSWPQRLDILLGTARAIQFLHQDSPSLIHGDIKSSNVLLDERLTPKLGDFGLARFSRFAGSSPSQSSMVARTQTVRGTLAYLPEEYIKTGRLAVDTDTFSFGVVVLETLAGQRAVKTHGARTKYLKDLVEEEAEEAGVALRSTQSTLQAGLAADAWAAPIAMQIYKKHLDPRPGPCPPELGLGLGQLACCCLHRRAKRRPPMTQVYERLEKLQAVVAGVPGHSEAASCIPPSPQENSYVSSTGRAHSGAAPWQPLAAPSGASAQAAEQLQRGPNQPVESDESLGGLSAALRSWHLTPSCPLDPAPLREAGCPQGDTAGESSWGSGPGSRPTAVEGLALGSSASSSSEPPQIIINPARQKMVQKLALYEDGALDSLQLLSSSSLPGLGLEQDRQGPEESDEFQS

On to `COc1cc2ncc(-c3cc(Oc4ccccc4)cc(N[C@H]4CNCC[C@@H]4F)n3)n2nc1C1CC1` [Compound 61a, 6-(6-cyclopropyl-7-methoxyimidazo[1,2-b]pyridazin-3-yl)-N-((3S,4S)-4-fluoropiperidin-3-yl)-4-phenoxypyridin-2-amine], for which the IC50 (commonly the concentration that gives 50% inhibition) is greater than 10000 nM against IRAK1, greater than 10000 nM at IRAK4 and 94 nM against FLT3.
Take `COc1cc2ncc(-c3cc(C4CC4)cc(N[C@H]4CNC[C@@H]4F)n3)n2nc1C1CC1` [Compound 57a, 4-cyclopropyl-6-(6-cyclopropyl-7-methoxyimidazo[1,2-b]pyridazin-3-yl)-N-((3S,4S)-4-fluoropyrrolidin-3-yl)pyridin-2-amine]: the concentration for half-maximal inhibition (IC50) against IRAK1 is greater than 10000 nM; against IRAK4 it was greater than 10000 nM; on FLT3 it was 19 nM.
On to `COc1cc2ncc(-c3cc(C4CC4)cc(N[C@H]4CNCC[C@@H]4F)n3)n2nc1C1CC1` [Compound 56a, 4-cyclopropyl-6-(6-cyclopropyl-7-methoxyimidazo[1,2-b]pyridazin-3-yl)-N-((3S,4S)-4-fluoropiperidin-3-yl)pyridin-2-amine], for which the IC50 was greater than 10000 nM on IRAK1, 9000 nM on IRAK4 and 2 nM at FLT3.
Take `COc1ccc(N[C@H]2CNCC[C@@H]2F)nc1-c1cnc2cc(OC)c(C3CC3)nn12` [Compound 37a, 6-(6-cyclopropyl-7-methoxyimidazo[1,2-b]pyridazin-3-yl)-N-((3S,4S)-4-fluoropiperidin-3-yl)-5-methoxypyridin-2-amine]: the IC50 against IRAK1 is greater than 10000 nM; on IRAK4 it was 247 nM; on FLT3, 40 nM.
The corresponding values for `COc1ccc(N[C@@H]2CCCNC2)nc1-c1cnc2cc(OC)c(C3CC3)nn12` [Compound 32a, (R)-6-(6-cyclopropyl-7-methoxyimidazo[1,2-b]pyridazin-3-yl)-5-methoxy-N-(piperidin-3-yl)pyridin-2-amine] are greater than 10000 nM, 853 nM and 80 nM.
Regarding `COc1ccc(N[C@H]2CNC[C@@H]2F)nc1-c1cnc2cc(OC)c(C3CC3)nn12` [Compound 36a, 6-(6-cyclopropyl-7-methoxyimidazo[1,2-b]pyridazin-3-yl)-N-((3S,4S)-4-fluoropyrrolidin-3-yl)-5-methoxypyridin-2-amine], the IC50 against IRAK1 is greater than 10000 nM; against IRAK4, 341 nM; on FLT3 it was 105 nM.
The corresponding values for `COc1cc2ncc(-c3nc(N[C@@H]4CCCNC4)c(F)cc3F)n2nc1C1CC2(CCC2)C1` [Compound 11a, (R)-3,5-difluoro-6-(7-methoxy-6-(spiro[3.3]heptan-2-yl)imidazo[1,2-b]pyridazin-3-yl)-N-(piperidin-3-yl)pyridin-2-amine] are 30 nM, 16 nM and less than 0.5 nM.
On to `COc1cc2ncc(-c3nc(N[C@H]4CNC[C@@H]4F)c(F)cc3F)n2nc1C12CC(C1)C2` [Compound 66a, 6-(6-(bicyclo[1.1.1]pentan-1-yl)-7-methoxyimidazo[1,2-b]pyridazin-3-yl)-3,5-difluoro-N-((3S,4S)-4-fluoropyrrolidin-3-yl)pyridin-2-amine], for which the results for the IC50 at IRAK1, on IRAK4 and on FLT3 were 21 nM, 2 nM and less than 0.5 nM, respectively.
For `COc1cc2ncc(-c3nc(N[C@H]4CNCC[C@@H]4F)c(F)cc3F)n2nc1C1CC(C)(C)C1` [Compound 9a, 6-(6-(3,3-dimethylcyclobutyl)-7-methoxyimidazo[1,2-b]pyridazin-3-yl)-3,5-difluoro-N-((3S,4S)-4-fluoropiperidin-3-yl)pyridin-2-amine], in that order: 74 nM, 26 nM and less than 0.5 nM.
The corresponding values for `COc1cc2ncc(-c3cc(Oc4ccccc4)cc(N[C@@H]4CCCNC4)n3)n2nc1C1CC1` [Compound 59a, (R)-6-(6-cyclopropyl-7-methoxyimidazo[1,2-b]pyridazin-3-yl)-4-phenoxy-N-(piperidin-3-yl)pyridin-2-amine] are greater than 10000 nM, greater than 10000 nM and 96 nM.
For the compound `COc1cc2ncc(-c3nc(N[C@H]4CNC[C@@H]4F)c(F)cc3F)n2nc1C1CCCCC1` [Compound 19a, 6-(6-cyclohexyl-7-methoxyimidazo[1,2-b]pyridazin-3-yl)-3,5-difluoro-N-((3S,4S)-4-fluoropyrrolidin-3-yl)pyridin-2-amine], the IC50 against IRAK1 was 17 nM; at IRAK4 it was 3 nM; against FLT3 it was less than 0.5 nM.
`COc1cc2ncc(-c3nc(N[C@H]4CNC[C@@H]4F)c(F)cc3F)n2nc1C1CC(C)(C)C1` [Compound 8a, 6-(6-(3,3-dimethylcyclobutyl)-7-methoxyimidazo[1,2-b]pyridazin-3-yl)-3,5-difluoro-N-((3S,4S)-4-fluoropyrrolidin-3-yl)pyridin-2-amine]: the IC50 is 190 nM against IRAK1, 9 nM on IRAK4 and 0.6 nM on FLT3.
As for `COc1cc2ncc(-c3nc(N[C@H]4CNC[C@@H]4F)c(F)cc3F)n2nc1C1CCCC1` [Compound 16a, 6-(6-cyclopentyl-7-methoxyimidazo[1,2-b]pyridazin-3-yl)-3,5-difluoro-N-((3S,4S)-4-fluoropyrrolidin-3-yl)pyridin-2-amine], the figures for the IC50 at IRAK1, at IRAK4 and at FLT3 were 7 nM, 2 nM and less than 0.5 nM, respectively.
As to `COc1cc2ncc(-c3nc(N[C@@H]4CCCNC4)c(F)cc3F)n2nc1C1COC1` [Compound 72a, (R)-3,5-difluoro-6-(7-methoxy-6-(oxetan-3-yl)imidazo[1,2-b]pyridazin-3-yl)-N-(piperidin-3-yl)pyridin-2-amine], the results for the concentration for half-maximal inhibition (IC50) on IRAK1, against IRAK4 and against FLT3 were 498 nM, 28 nM and less than 0.5 nM, respectively.
With `COc1cc2ncc(-c3cc(C)cc(N[C@@H]4CCCNC4)n3)n2nc1C1CC1` [Compound 51a, (R)-6-(6-cyclopropyl-7-methoxyimidazo[1,2-b]pyridazin-3-yl)-4-methyl-N-(piperidin-3-yl)pyridin-2-amine], the IC50 against IRAK1 was greater than 10000 nM; on IRAK4, 4920 nM; against FLT3, 2 nM.
For `COc1cc2ncc(-c3cc(-c4ccccc4)cc(N[C@H]4CNC[C@@H]4F)n3)n2nc1C1CC1` [Compound 54a, 6-(6-cyclopropyl-7-methoxyimidazo[1,2-b]pyridazin-3-yl)-N-((3S,4S)-4-fluoropyrrolidin-3-yl)-4-phenylpyridin-2-amine], in that order: 9510 nM, 6530 nM and 949 nM.

Values taken from patent US20250368648A1, “MULTI-CYCLIC IRAK AND FLT3 INHIBITING COMPOUNDS AND USES THEREOF” (CHILDREN'S HOSPITAL MEDICAL CENTER, priority 2022, published 2025).
